Reference: patent publication US20260262643A1, “HERBICIDAL BENZOXAZINES” (FMC CORPORATION, priority 2022, published 2026)

Legend:
blackgrass [1] = assay: Test C postemergence; format: in vivo, Alopecurus myosuroides; conditions: 10 days
In short: (§1)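 Test material, in non-phytotoxic solvent with surfactant, was sprayed on the soil directly after seeding (preemergence) or on young plants of 2–10 cm with one to two leaves (postemergence). Greenhouse, 10 days; 0–100 visual control scale.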

corn [2] = assay: Test C postemergence; format: in vivo, Zea mays; conditions: 10 days
In short: as §1

ryegrass, Italian [3] = assay: Test C postemergence; format: in vivo, Lolium multiflorum; conditions: 10 days
In short: as §1

horseweed = assay: Test C postemergence; format: in vivo, Erigeron canadensis; conditions: 10 days
In short: as §1

ragweed [4] = assay: Test C postemergence; format: in vivo, Ambrosia artemisiifolia; conditions: 10 days
In short: as §1

oat, wild [5] = assay: Test C preemergence; format: in vivo, Avena fatua; conditions: 0 to 100 scale (0 no effect, 100 complete control); for Plant response rating, Oat, Wild: Preemergence, 500 g ai/ha, visual rating after 10 days
In short: as §1

wheat [6] = assay: Test C postemergence; format: in vivo, Triticum aestivum; conditions: 10 days
In short: as §1

pigweed, palmer [7] = assay: Test C postemergence; format: in vivo, Amaranthus palmeri; conditions: 10 days
In short: as §1

barnyardgrass [8] = assay: Test C postemergence; format: in vivo, Echinochloa crusgalli; conditions: 10 days
In short: as §1

pigweed, palmer [9] = assay: Test C preemergence; format: in vivo, Amaranthus palmeri; conditions: 0 to 100 scale (0 no effect, 100 complete control); for Plant response rating, Pigweed, Palmer: Preemergence, 500 g ai/ha, visual rating after 10 days; for Pigweed, Palmer plant response rating: Test C, preemergence, 125 g ai/ha
In short: as §1

soybean [10] = assay: Test C postemergence; format: in vivo, Glycine max; conditions: 10 days
In short: as §1

kochia [11] = assay: Test C preemergence; format: in vivo, Bassia scoparia; conditions: 0 to 100 scale (0 no effect, 100 complete control); for Plant response rating, Kochia: Preemergence, 500 g ai/ha, visual rating after 10 days; for Kochia plant response rating: Test C, preemergence, 125 g ai/ha
In short: as §1

corn [12] = assay: Test C preemergence; format: in vivo, Zea mays; conditions: 0 to 100 scale (0 no effect, 100 complete control); for Plant response rating, Corn: Preemergence, 500 g ai/ha, visual rating after 10 days; for Corn plant response rating: Test C, preemergence, 125 g ai/ha
In short: as §1

ducksalad = assay: Test D flooded paddy test; format: in vivo, Heteranthera limosa; conditions: 250 g ai/ha, applied to paddy water, visual rating after 13 to 14 days, scale 0 to 100 (0 no effect, 100 complete control)
In short: (§2)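 Compounds go straight into paddy water over 2-leaf plants in pots flooded to 3 cm. Greenhouse holding lasts 13 to 14 days. Injury is scored by eye against controls from 0 (none) to 100 (complete control).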

barnyardgrass [13] = assay: Test C preemergence; format: in vivo, Echinochloa crusgalli; conditions: 0 to 100 scale (0 no effect, 100 complete control); for Plant response rating, Barnyardgrass: Preemergence, 500 g ai/ha, visual rating after 10 days; for Barnyardgrass plant response rating: Test C, preemergence, 125 g ai/ha
In short: as §1

wheat [14] = assay: Test C preemergence; format: in vivo, Triticum aestivum; conditions: 0 to 100 scale (0 no effect, 100 complete control); for Plant response rating, Wheat: Preemergence, 500 g ai/ha, visual rating after 10 days; for Wheat plant response rating: Test C, preemergence, 125 g ai/ha
In short: as §1

green foxtail [15] = assay: Test C postemergence; format: in vivo, Setaria viridis; conditions: 10 days
In short: as §1

rice = assay: Test D flooded paddy test; format: in vivo, Oryza sativa; conditions: 250 g ai/ha, applied to paddy water, visual rating after 13 to 14 days, scale 0 to 100 (0 no effect, 100 complete control)
In short: as §2

ryegrass, Italian [16] = assay: Test C preemergence; format: in vivo, Lolium multiflorum; conditions: 0 to 100 scale (0 no effect, 100 complete control); for Plant response rating, Ryegrass, Italian: Preemergence, 500 g ai/ha, visual rating after 10 days; for Ryegrass, Italian plant response rating: Test C, preemergence, 125 g ai/ha
In short: as §1

kochia [17] = assay: Test C postemergence; format: in vivo, Bassia scoparia; conditions: 10 days
In short: as §1

blackgrass [18] = assay: Test C preemergence; format: in vivo, Alopecurus myosuroides; conditions: 0 to 100 scale (0 no effect, 100 complete control); for Plant response rating, Blackgrass: Preemergence, 500 g ai/ha, visual rating after 10 days; for Blackgrass plant response rating: Test C, preemergence, 125 g ai/ha
In short: as §1

green foxtail [19] = assay: Test C preemergence; format: in vivo, Setaria viridis; conditions: 0 to 100 scale (0 no effect, 100 complete control); for Plant response rating, Foxtail, Green: Preemergence, 500 g ai/ha, visual rating after 10 days; for Foxtail, Green plant response rating: Test C, preemergence, 125 g ai/ha
In short: as §1

barnyardgrass [20] = assay: Test D flooded paddy test; format: in vivo, Echinochloa crus-galli; conditions: 250 g ai/ha, applied to paddy water, visual rating after 13 to 14 days, scale 0 to 100 (0 no effect, 100 complete control)
In short: as §2

ragweed [21] = assay: Test C preemergence; format: in vivo, Ambrosia artemisiifolia; conditions: 0 to 100 scale (0 no effect, 100 complete control); for Plant response rating, Ragweed: Preemergence, 500 g ai/ha, visual rating after 10 days; for Ragweed plant response rating: Test C, preemergence, 125 g ai/ha
In short: as §1

oat, wild [22] = assay: Test C postemergence; format: in vivo, Avena fatua; conditions: 10 days
In short: as §1

sedge, umbrella = assay: Test D flooded paddy test; format: in vivo, Cyperus difformis; conditions: 250 g ai/ha, applied to paddy water, visual rating after 13 to 14 days, scale 0 to 100 (0 no effect, 100 complete control)
In short: as §2

soybean [23] = assay: Test C preemergence; format: in vivo, Glycine max; conditions: 0 to 100 scale (0 no effect, 100 complete control); for Plant response rating, Soybean: Preemergence, 500 g ai/ha, visual rating after 10 days; for Soybean plant response rating: Test C, preemergence, 125 g ai/ha
In short: as §1

[24] = 125 g ai/ha, postemergence, 0 to 100 scale, 0 no effect, 100 complete control
[25] = Postemergence, 500 g ai/ha, visual 0 to 100 scale (0 no effect, 100 complete control)

C[C@H]1CN(C(=O)c2cccc(-c3ncccn3)c2)c2cccc(Cl)c2O1 [Compound 203]
Plant response rating, Blackgrass (blackgrass [1]; [24]): 0 | Plant response rating, Blackgrass (blackgrass [1]; [25]): 0 | Plant response rating, Corn (corn [2]; [24]): 0 | Plant response rating, Corn (corn [2]; [25]): 10 | Plant response rating, Ryegrass, Italian (ryegrass, Italian [3]; [24]): 0 | Plant response rating, Ryegrass, Italian (ryegrass, Italian [3]; [25]): 0 | Plant response rating, Horseweed (horseweed; [24]): 0 | Plant response rating, Horseweed (horseweed; [25]): 0 | Plant response rating, Ragweed (ragweed [4]; [24]): 0 | Plant response rating, Ragweed (ragweed [4]; [25]): 20 | Plant response rating, Oat, Wild (oat, wild [5]): 0 | Plant response rating, Wheat (wheat [6]; [24]): 0 | Plant response rating, Wheat (wheat [6]; [25]): 10 | Plant response rating, Pigweed, Palmer (pigweed, palmer [7]; [24]): 0 | Plant response rating, Pigweed, Palmer (pigweed, palmer [7]; [25]): 40 | Plant response rating, Barnyardgrass (barnyardgrass [8]; [24]): 0 | Plant response rating, Barnyardgrass (barnyardgrass [8]; [25]): 0 | Plant response rating, Pigweed, Palmer (pigweed, palmer [9]): 70 | Pigweed, Palmer plant response rating (pigweed, palmer [9]): 20 | Plant response rating, Soybean (soybean [10]; [24]): 100 | Plant response rating, Soybean (soybean [10]; [25]): 100 | Plant response rating, Kochia (kochia [11]): 30 | Kochia plant response rating (kochia [11]): 0 | Plant response rating, Corn (corn [12]): 0 | Corn plant response rating (corn [12]): 0 | Plant response rating, Ducksalad (Flood) (ducksalad): 0 | Plant response rating, Barnyardgrass (barnyardgrass [13]): 0 | Barnyardgrass plant response rating (barnyardgrass [13]): 0 | Plant response rating, Wheat (wheat [14]): 0 | Wheat plant response rating (wheat [14]): 0 | Plant response rating, Foxtail, Green (green foxtail [15]; [24]): 0 | Plant response rating, Foxtail, Green (green foxtail [15]; [25]): 10 | Plant response rating, Rice (Flood) (rice): 0 | Plant response rating, Ryegrass, Italian (ryegrass, Italian [16]): 20 | Ryegrass, Italian plant response rating (ryegrass, Italian [16]): 0 | Plant response rating, Kochia (kochia [17]; [24]): 0 | Plant response rating, Kochia (kochia [17]; [25]): 40 | Plant response rating, Blackgrass (blackgrass [18]): 0 | Blackgrass plant response rating (blackgrass [18]): 0 | Plant response rating, Foxtail, Green (green foxtail [19]): 60 | Foxtail, Green plant response rating (green foxtail [19]): 20 | Plant response rating, Barnyardgrass (Flood) (barnyardgrass [20]): 0 | Plant response rating, Ragweed (ragweed [21]): 0 | Ragweed plant response rating (ragweed [21]): 0 | Plant response rating, Oat, Wild (oat, wild [22]; [24]): 0 | Plant response rating, Oat, Wild (oat, wild [22]; [25]): 10 | Plant response rating, Sedge, Umbrella (Flood) (sedge, umbrella): 0 | Plant response rating, Soybean (soybean [23]): 0 | Soybean plant response rating (soybean [23]): 0

CCc1ncn(-c2ccc(OC)c(C(=O)N3C[C@H](C)Oc4c(C)cccc43)c2)n1 [Compound 211]
Plant response rating, Blackgrass (blackgrass [1]; [24]): 90 | Plant response rating, Blackgrass (blackgrass [1]; [25]): 100 | Plant response rating, Corn (corn [2]; [24]): 70 | Plant response rating, Corn (corn [2]; [25]): 90 | Plant response rating, Ryegrass, Italian (ryegrass, Italian [3]; [24]): 70 | Plant response rating, Ryegrass, Italian (ryegrass, Italian [3]; [25]): 90 | Plant response rating, Horseweed (horseweed; [24]): 80 | Plant response rating, Horseweed (horseweed; [25]): 90 | Plant response rating, Ragweed (ragweed [4]; [24]): 50 | Plant response rating, Ragweed (ragweed [4]; [25]): 70 | Plant response rating, Oat, Wild (oat, wild [5]): 90 | Oat, Wild plant response rating (oat, wild [5]; Test C, preemergence, 125 g ai/ha): 70 | Plant response rating, Wheat (wheat [6]; [24]): 70 | Plant response rating, Wheat (wheat [6]; [25]): 90 | Plant response rating, Pigweed, Palmer (pigweed, palmer [7]; [24]): 90 | Plant response rating, Pigweed, Palmer (pigweed, palmer [7]; [25]): 100 | Plant response rating, Barnyardgrass (barnyardgrass [8]; [24]): 80 | Plant response rating, Barnyardgrass (barnyardgrass [8]; [25]): 100 | Plant response rating, Pigweed, Palmer (pigweed, palmer [9]): 100 | Pigweed, Palmer plant response rating (pigweed, palmer [9]): 100 | Plant response rating, Soybean (soybean [10]; [24]): 100 | Plant response rating, Soybean (soybean [10]; [25]): 100 | Plant response rating, Kochia (kochia [11]): 100 | Kochia plant response rating (kochia [11]): 100 | Plant response rating, Corn (corn [12]): 70 | Corn plant response rating (corn [12]): 70 | Plant response rating, Ducksalad (Flood) (ducksalad): 100 | Plant response rating, Barnyardgrass (barnyardgrass [13]): 100 | Barnyardgrass plant response rating (barnyardgrass [13]): 100 | Plant response rating, Wheat (wheat [14]): 80 | Wheat plant response rating (wheat [14]): 80 | Plant response rating, Foxtail, Green (green foxtail [15]; [24]): 90 | Plant response rating, Foxtail, Green (green foxtail [15]; [25]): 90 | Plant response rating, Rice (Flood) (rice): 50 | Plant response rating, Ryegrass, Italian (ryegrass, Italian [16]): 100 | Ryegrass, Italian plant response rating (ryegrass, Italian [16]): 100 | Plant response rating, Kochia (kochia [17]; [24]): 70 | Plant response rating, Kochia (kochia [17]; [25]): 90 | Plant response rating, Blackgrass (blackgrass [18]): 90 | Blackgrass plant response rating (blackgrass [18]): 90 | Plant response rating, Foxtail, Green (green foxtail [19]): 100 | Foxtail, Green plant response rating (green foxtail [19]): 0 | Plant response rating, Barnyardgrass (Flood) (barnyardgrass [20]): 55 | Plant response rating, Ragweed (ragweed [21]): 100 | Ragweed plant response rating (ragweed [21]): 100 | Plant response rating, Oat, Wild (oat, wild [22]; [24]): 70 | Plant response rating, Oat, Wild (oat, wild [22]; [25]): 90 | Plant response rating, Sedge, Umbrella (Flood) (sedge, umbrella): 100 | Plant response rating, Soybean (soybean [23]): 100 | Soybean plant response rating (soybean [23]): 100
